According to patent US20250110116A1, “COMPOSITIONS AND METHODS FOR PRODUCING HAIR FOLLICLE STEM CELLS” (The Rockefeller University, priority 2023, published 2025):
Entries after “also recorded” stand apart in the source; their conditions may differ. Read-outs that look alike come from different tables or passages of the source.

What was measured:
HFSCs [1] = assay: HFSC growth, survival and colony formation in 3D Matrigel culture; format: cell-based, mouse; conditions: for concentration at which maximal rates of cell proliferation were reached: 3D Matrigel culture, standard HFSC media
human keratinocytes = assay: Human keratinocyte culture under the described conditions, 7 days; format: cell-based; conditions: atRA plus PKCi added to B-27 media
Description: This example relates to FIG. 21. With respect to FIG. 21, to assess the translatability of the described methodology enabling the faithful recapitulation of hair follicle stem cell (HFSC) identity in culture to humans, we introduced the described conditions developed in the mouse to human keratinocytes.

cultured HFSCs [2] = assay: HFSC quiescence / bulge identity in culture (Nfatc1, Cxcl14 reporter); format: cell-based, mouse
Description: In vivo, HFSCs can be divided into two populations: those in a more quiescent state found in the bulge and ones primed for activation, located in the ‘hair germ’ (HG) just below the bulge. As BMP6 is produced by the inner bulge and responsible for maintaining HFSCs in their quiescent state (FIG. 2 Panel A), we continued to utilize a described culture system by assessing how these factors impact HFSC activation and fate commitment.
BMPs triggered cell cycle exit (FIG. 9 Panel A).
(§1) ERKi was also excluded because of its known ability to regulate the initiation of hair growth. Both atRA (10 nM-1 μM) and PKCi (0.1-10 μM) were titrated to determine the optimal concentration to reduce lineage plasticity and promote physiological HFSC behavior. […] In contrast, BMP6-mediated Nfatc1 mRNA upregulation (quiescence marker) was maximal at 10 nM. Therefore, the amount of atRA should be modified in HFSC cultures to support the desired cell fate in combination with these and possibly other growth factors.

cultured HFSCs [3] = assay: Marker expression in cultured HFSCs (immunofluorescence, immunoblot, qPCR); format: cell-based, mouse
Description: We first explored these two hits against the backdrop of our more physiological (serum-free) conditions, where SOX9 and KLF5 had already partitioned their expression peripherally and internally within colonies, respectively (FIG. 1 Panel C).
Immunoblot, qPCR and additional immunofluorescence analyses strengthened the evidence that PKCi and atRA resolve lineage plasticity (FIG. 1 Panel D, FIG. S2, Panels C to E).

Klf5-EGFP = Klf5-EGFP lineage plasticity reporter in 3D cultured HFSCs (flow cytometry); format: cell-based, mouse; conditions: for Klf5-EGFP levels: media modification
cultured HFSCs [4] = assay: Directed differentiation of cultured HFSCs to HS and IRS lineages (Cux1 reporters, GATA3, HOXC13); format: cell-based, mouse; conditions: for hair shaft (HS) differentiation (HOXC13, HS reporter): WNT-BMP co-activated HFSCs
HFSCs [5] = assay: Wound repair with lineage-traced HFSCs, topical treatment; format: in vivo, mice; conditions: topical
Description: The recruitment of HFSCs to epidermal repair is a multistep process, involving first the entry of HFSCs into a lineage plasticity state, second the fate switch to an epidermal fate and then later, the rebalancing of stem cell numbers across tissue compartments. Given the need for atRA to drive hair lineage determination, we analyzed whether elevating atRA after injury might diminish the ability of HFSCs to enter a state of lineage plasticity after wounding. To test this, we administered topical atRA immediately after wounding to telogen-phase, lineage marked HFSCs. While entry into the hair cycle proceeded normally after injury, topical atRA led to a stem cell imbalance (FIG. 5 Panel D).
To assess the consequences of promoting lineage plasticity following injury, we placed mice on a vitamin A-deficient diet that depleted the skin of retinol without affecting body mass (FIG. 15 Panel E). In this case, following tissue injury, mobilized HFSCs entered a prolonged stated of dual lineage potential well into the later stages of repair (FIG. 5 Panel D). […] By day 30, vitamin A deficiency also elevated the fraction of stem cells that contributed to the repaired epidermis and diminished the number remaining in the bulge.

cultured HFSCs [6] = assay: Rspo/WNT-mediated HFSC activation in culture (TCF/LEF, Lgr5, EdU); format: cell-based, mouse
Description: In vitro, none of the four WNT-regulating TCF/LEF transcription factors were expressed under standard serum conditions or in serum-free conditions, even with PKCi. […] These HFSC-associated TFs were also stimulated by BMP6, consistent with a raised threshold for activating WNT during quiescence (FIG. 10, Panels A and B). […] Rspo-mediated HFSC proliferation was sensitive to atRA with the greatest cooperative effect seen at 10-fold higher the atRA concentration that had been optimal for quiescence-related features of stemness (FIG. 2 Panel E, FIG. 10 Panel D).
as §1

HFSCs [7] = assay: Transplantation of precultured HFSCs with dermal fibroblasts onto mouse back skins; format: in vivo; conditions: HFSCs precultured in serum-free media primed with either atRA, BMP6 or Rspo
Description: By overcoming the hurdles to lineage progression in vitro, we challenged the in vivo regenerative potential of the described lineage-specified cell populations. YFP-labeled progenitors from each group were combined with allogenic dermal fibroblasts and transplanted onto mouse back skins.

[Ca+2].[Cl-].[Cl-] [CaCl2, Calcium Chloride]
effect on cell survival, colony formation or proliferation (HFSCs [1]): Less CaCl2 reduced cell proliferation while higher amounts promoted epidermal differentiation

C[C@@H](N)[C@H]1CC[C@H](C(=O)Nc2ccncc2)CC1 [Y-27632]
effect on cell survival, colony formation or proliferation (HFSCs [1]; media component testing): increase cell survival and CFE

EGF: epidermal growth factor, mitogen
concentration at which maximal rates of cell proliferation were reached (HFSCs [1]): 25 ng/mL

C[C@]12CCC(=O)C=C1CC[C@@H]1[C@@H]2[C@@H](O)C[C@@]2(C)[C@H]1CC[C@]2(O)C(=O)CO [Hydrocortisone, hydrocortisone]
effect on cell survival, colony formation or proliferation (HFSCs [1]; media component testing): not necessary for colony formation or cell proliferation

Cn1c2ccccc2c2c3c(c4c5ccccc5n(CCC#N)c4c21)CNC3=O [PKCi, Go-6976]
KLF5 expression (human keratinocytes): further suppressed KLF5 expression in both basal and suprabasal layers
SOX9 levels (human keratinocytes): upregulated SOX9 levels
keratin profile (KRT10, KRT6, KRT15) (human keratinocytes; listed as G66976): reductions in KRT10 and KRT6; also recorded: upregulation of KRT15
Cxcl14 activity (cultured HFSCs [2]): little or no effect on Cxcl14 activity
KRT6 and Ets2 expression (cultured HFSCs [3]): suppressed
resolution of lineage plasticity and HFSC behavior (cultured HFSCs [3]; combination of atRA and PKCi, 3D culture): optimally resolved lineage plasticity and favored HFSC behavior
KLF5 expression (cultured HFSCs [3]; serum-free conditions): suppressed KLF5 expression
reduction of Klf5-EGFP levels (Klf5-EGFP; atRA and PKCi tested in combination): most effective at reducing Klf5-EGFP levels
effect on lineage plasticity (Klf5-EGFP levels) (Klf5-EGFP; screen of small molecule library, serum-free 3D culture): effective at reducing lineage plasticity without affecting proliferation; also recorded: particularly effective agents impacting lineage plasticity
minimum concentration required to achieve maximal effect on lineage plasticity and HFSC fate (Klf5-EGFP; titrated 0.1-10 μM): 1 µM

Cc1ccc(C2=CCC(C)(C)c3ccc(C#Cc4ccc(C(=O)O)cc4)cc32)cc1 [AGN193109]
hair shaft (HS) differentiation (HOXC13, HS reporter) (cultured HFSCs [4]): uniquely promoted
hair shaft (HS) differentiation (HOXC13, HS reporter) (cultured HFSCs [4]; listed as RARi): primarily increased HOXC13 expression and enhancer epicenter reporter activity for the HS lineage
HF downgrowth and epidermal flux following wounding (HFSCs [5]): reducing HF downgrowth and promoting epidermal upward flux

N[C@@H](CCC(=O)N[C@@H](CS)C(=O)NCC(=O)O)C(=O)O [glutathione]
Klf5-EGFP levels (Klf5-EGFP): greatest impact when removed

CC(C)CCC[C@@H](C)[C@H]1CC[C@H]2[C@@H]3CC=C4C[C@@H](O)CC[C@]4(C)[C@H]3CC[C@]12C [Cholesterol]
HFSC colony growth (HFSCs [1]; serum-free media): increase colony growth without compromising reductions in lineage plasticity

B1: FGF10: fibroblast growth factor 10, native HFSC niche mitogen (protein, UniProt O15520 38-208, looked up)
Fibroblast growth factor 10: QALGQDMVSPEATNSSSSSFSSPSSAGRHVRSYNHLQGDVRWRKLFSFTKYFLKIEKNGKVSGTKKENCPYSILEITSVEIGVVAVKAINSNYYLAMNKKGKLYGSKEFNNDCKLKERIEENGYNTYASFNWQHNGRQMYVALNGKGAPRRGQKTRRKNTSAHFLPMVVHS
concentration at which maximal rates of cell proliferation were reached (HFSCs [1]): 10 ng/mL
Klf5-EGFP levels (Klf5-EGFP): consistently lower

B2: BMP4: bone morphogenetic protein (protein, UniProt P12644 293-408, looked up)
Bone morphogenetic protein 4: SPKHHSQRARKKNKNCRRHSLYVDFSDVGWNDWIVAPPGYQAFYCHGDCPFPLADHLNSTNHAIVQTLVNSVNSSIPKACCVPTELSAISMLYLDEYDKVVLKNYQEMVVEGCGCR
lineages formed (cultured HFSCs [4]; R-spondins, BMP2 and BMP4 together): directed HFSCs to form the hair shaft and inner root sheath lineages
Cux1 (IRS) and Cux1 (HS) reporter activity (cultured HFSCs [4]; alongside Rspo): most effective in upregulating reporter activity

B3: BMP6: bone morphogenetic protein; promotes HFSC quiescence (protein, UniProt P22004 375-513, looked up)
Bone morphogenetic protein 6: SASSRRRQQSRNRSTQSQDVARVSSASDYNSSELKTACRKHELYVSFQDLGWQDWIIAPKGYAANYCDGECSFPLNAHMNATNHAIVQTLVHLMNPEYVPKPCCAPTKLNAISVLYFDDNSNVILKKYRNMVVRACGCH
cell state (cultured HFSCs [2]; BMP6 with low concentration of atRA (10 nM)): resulted in cell cycle exit and maintained a state resembling quiescence
cell cycle exit / quiescence (Nfatc1 expression, Cxcl14 promoter reporter) (cultured HFSCs [2]; compared among BMPs): most potent effect
Tcf7l1 (TCF3) and Tcf7l2 (TCF4) expression (cultured HFSCs [6]): stimulated
hair production upon engraftment (HFSCs [7]): efficiently produced hair
